Results as given in the supplement of paper PMC11451515.

How the values were obtained:
Details in all cases: 48 h
P12-Ichikawa [1] = assay: cell viability relative to DMSO control; higher = less cytotoxic
Method in brief: (§1)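 NOMO1 or SEM cells were plated at 500 cells/well and P12-Ichikawa cells at 1000 cells/well in 1536-well plates (5 μl), after each leukemia line had been adapted for at least four passages in each medium. Pin dosing delivered library compounds in DMSO at 11 threefold concentrations, 47 μM to 0.79 nM. CellTiter-Glo One luminescence was read after 48 h at 37°C. Viability is reported as a per-plate percentage of DMSO wells, with cell-free wells as background.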

NOMO1 [2] = assay: as above
Method in brief: as §1

SEM cells [3] = assay: as above
Method in brief: as §1

SEM cells [4] = assay: AUC of viability dose-response curve (% viability x log10 dose units); higher = less sensitive
Method in brief: (§2)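 Area under the curve was integrated by trapezoidal rule from a log-logistic fit of normalised viability, with curves exceeding full viability scaled and quality-control failures removed. The fit had four parameters over log10 doses. Viability came from CellTiter-Glo One luminescence, normalised per plate to DMSO and cell-free wells, after leukemia cells adapted to each medium (500 or 1000 cells/well, 1536-well plates) were exposed to library compounds in DMSO for 48 h at 37°C. The 11 threefold doses ran from 47 μM to 0.79 nM.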

P12-Ichikawa [5] = assay: as above
Method in brief: as §2

NOMO1 [6] = assay: as above
Method in brief: as §2

NCCOc1cc(C(=O)Nc2cc(OCCN)c3ccccc3n2)nc(C(=O)Nc2cc(OCCN)c3ccccc3n2)c1
cell viability [%]
Details	NOMO1 [2]	P12-Ichikawa [1]	SEM cells [3]
HPLM + 10% dialyzed FBS, 0.000781 µM	65.8	44.2	47.6
HPLM + 10% dialyzed FBS, 0.00234 µM	36.4	13.1	56.1
HPLM + 10% dialyzed FBS, 0.00702 µM	43.9	12.7	36.1
HPLM + 10% dialyzed FBS, 0.0211 µM	40.8	12.8	23.8
HPLM + 10% dialyzed FBS, 0.0632 µM	38.1	14.1	19.4
HPLM + 10% dialyzed FBS, 0.19 µM	47.5	12.8	22.9
HPLM + 10% dialyzed FBS, 0.569 µM	43.2	13.3	22.8
HPLM + 10% dialyzed FBS, 1.71 µM	40.3	9.79	21.5
HPLM + 10% dialyzed FBS, 5.12 µM	42.2	7.51	22.2
HPLM + 10% dialyzed FBS, 15.4 µM	56.4	21.5	31.1
HPLM + 10% dialyzed FBS, 46.1 µM	56.4	61.7	46.3
RPMI 5 mM glucose + 10% FBS, 0.000781 µM	96	113	23.9
RPMI 5 mM glucose + 10% FBS, 0.00234 µM	60.5	120	19.8
RPMI 5 mM glucose + 10% FBS, 0.00702 µM	42.3	113	23.7
RPMI 5 mM glucose + 10% FBS, 0.0211 µM	27	19	21.1
RPMI 5 mM glucose + 10% FBS, 0.0632 µM	25.8	17.4	22.1
RPMI 5 mM glucose + 10% FBS, 0.19 µM	25.2	17	23.6
RPMI 5 mM glucose + 10% FBS, 0.569 µM	27.9	15.7	23.2
RPMI 5 mM glucose + 10% FBS, 1.71 µM	24	16	19.3
RPMI 5 mM glucose + 10% FBS, 5.12 µM	25.8	16.7	27.5
RPMI 5 mM glucose + 10% FBS, 15.4 µM	38.5	24.4	32.6
RPMI 5 mM glucose + 10% FBS, 46.1 µM	64.1	68.8	61.1
RPMI 5 mM glucose + 10% dialyzed FBS, 0.000781 µM	–	–	67.3
RPMI 5 mM glucose + 10% dialyzed FBS, 0.00234 µM	–	–	58.4
RPMI 5 mM glucose + 10% dialyzed FBS, 0.00702 µM	–	–	42.6
RPMI 5 mM glucose + 10% dialyzed FBS, 0.0211 µM	–	–	25.6
RPMI 5 mM glucose + 10% dialyzed FBS, 0.0632 µM	–	–	22.9
RPMI 5 mM glucose + 10% dialyzed FBS, 0.19 µM	–	–	20
RPMI 5 mM glucose + 10% dialyzed FBS, 0.569 µM	–	–	22.9
RPMI 5 mM glucose + 10% dialyzed FBS, 1.71 µM	–	–	25.4
RPMI 5 mM glucose + 10% dialyzed FBS, 5.12 µM	–	–	21.7
RPMI 5 mM glucose + 10% dialyzed FBS, 15.4 µM	–	–	38.2
RPMI 5 mM glucose + 10% dialyzed FBS, 46.1 µM	–	–	59.5

SEM cells [4]
Details	AUC of viability dose-response curve
HPLM + 10% dialyzed FBS	148
RPMI 5 mM glucose + 10% FBS	122
RPMI 5 mM glucose + 10% dialyzed FBS	170

O=C(Nc1nc2cccc(-c3ccc(CN4CC[S+](=O)([O-])CC4)cc3)n2n1)C1CC1
cell viability [%], SEM cells [3]
Details	RPMI 5 mM glucose + 10% FBS	RPMI 5 mM glucose + 10% dialyzed FBS
0.000781 µM	111	120
0.00234 µM	133	125
0.00702 µM	120	109
0.0211 µM	124	126
0.0632 µM	136	130
0.19 µM	146	152
0.569 µM	130	133
1.71 µM	121	124
5.12 µM	103	90.1
15.4 µM	107	94.6
46.1 µM	21.3	31.1

AUC of viability dose-response curve
Details	NOMO1 [6]	P12-Ichikawa [5]	SEM cells [4]
HPLM + 10% dialyzed FBS	440	455	441
RPMI 5 mM glucose + 10% FBS	449	454	446
RPMI 5 mM glucose + 10% dialyzed FBS	444	455	432

C[C@@H]1C[C@@H]([C@H](O)CC2CC(=O)NC(=O)C2)C(=O)[C@@H](C)C1
AUC of viability dose-response curve
Details	NOMO1 [6]	P12-Ichikawa [5]	SEM cells [4]
HPLM + 10% dialyzed FBS	315	312	279
RPMI 5 mM glucose + 10% FBS	337	288	268
RPMI 5 mM glucose + 10% dialyzed FBS	323	299	295

Cc1oncc1C(=O)Nc1ccc(C(F)(F)F)cc1
AUC of viability dose-response curve
Details	NOMO1 [6]	P12-Ichikawa [5]	SEM cells [4]
HPLM + 10% dialyzed FBS	458	461	471
RPMI 5 mM glucose + 10% FBS	461	454	468
RPMI 5 mM glucose + 10% dialyzed FBS	422	459	465

COc1nc(N)nc2c1ncn2[C@@H]1O[C@H](CO)[C@@H](O)[C@@H]1O
AUC of viability dose-response curve
Details	NOMO1 [6]	P12-Ichikawa [5]	SEM cells [4]
HPLM + 10% dialyzed FBS	458	455	472
RPMI 5 mM glucose + 10% FBS	444	462	449
RPMI 5 mM glucose + 10% dialyzed FBS	448	456	463

CN1CCN2c3ccccc3Cc3ccccc3C2C1 (centres undefined)
AUC of viability dose-response curve
Details	NOMO1 [6]	P12-Ichikawa [5]	SEM cells [4]
HPLM + 10% dialyzed FBS	433	453	467
RPMI 5 mM glucose + 10% FBS	474	441	463
RPMI 5 mM glucose + 10% dialyzed FBS	472	466	453

O=C(O)/C=C/c1ccc(Cn2ccnc2)cc1
AUC of viability dose-response curve
Details	NOMO1 [6]	P12-Ichikawa [5]	SEM cells [4]
HPLM + 10% dialyzed FBS	469	438	466
RPMI 5 mM glucose + 10% FBS	438	436	471
RPMI 5 mM glucose + 10% dialyzed FBS	460	464	473

C[C@H](c1ccc(F)cc1CCCC(=O)O)N(c1cc(F)ccc1F)[S+](=O)([O-])c1ccc(Cl)cc1
AUC of viability dose-response curve
Details	NOMO1 [6]	P12-Ichikawa [5]	SEM cells [4]
HPLM + 10% dialyzed FBS	452	454	462
RPMI 5 mM glucose + 10% FBS	455	449	465
RPMI 5 mM glucose + 10% dialyzed FBS	450	447	461

OC1=CC(=C(C=C1)\C2=C(O)\C(=O)C3=C(O2)C=C(O)C=C3O)O
NOMO1 [2], HPLM + 10% dialyzed FBS
Details	cell viability [%]
0.000781 µM	121
0.00234 µM	118
0.00702 µM	138
0.0211 µM	136
0.0632 µM	120
0.19 µM	137
0.569 µM	132
1.71 µM	119
5.12 µM	112
15.4 µM	106
46.1 µM	71.5

AUC of viability dose-response curve
Details	NOMO1 [6]	P12-Ichikawa [5]	SEM cells [4]
HPLM + 10% dialyzed FBS	450	442	461
RPMI 5 mM glucose + 10% FBS	433	444	459
RPMI 5 mM glucose + 10% dialyzed FBS	467	443	465

COC1=CC(=CC(=C1)C2=CC=C3N=CC\4=C(N(C(=O)\C=C4)C5=CC(=C(C=C5)N6CCNCC6)C(F)(F)F)C3=C2)OC
AUC of viability dose-response curve
Details	NOMO1 [6]	P12-Ichikawa [5]	SEM cells [4]
HPLM + 10% dialyzed FBS	387	440	406
RPMI 5 mM glucose + 10% FBS	456	407	414
RPMI 5 mM glucose + 10% dialyzed FBS	436	412	413

FC1=CC2=C3[N](CCN(CC3=C1)C(=O)N4CCCCC4)C=C2C/5=C(C(=O)NC5=O)\C6=CN=C7C=CC=C[N]67
SEM cells [3], HPLM + 10% dialyzed FBS
Details	cell viability [%]
0.000781 µM	104
0.00234 µM	109
0.00702 µM	118
0.0211 µM	57
0.0632 µM	11.5
0.19 µM	9.31
0.569 µM	8.55
1.71 µM	10.7
5.12 µM	8.69
15.4 µM	5.56
46.1 µM	6.04

AUC of viability dose-response curve
Details	NOMO1 [6]	P12-Ichikawa [5]	SEM cells [4]
HPLM + 10% dialyzed FBS	461	329	168
RPMI 5 mM glucose + 10% FBS	469	298	159
RPMI 5 mM glucose + 10% dialyzed FBS	463	367	159

C[S+](=O)([O-])OCCCCO[S+](C)(=O)[O-]
SEM cells [3], HPLM + 10% dialyzed FBS
Details	cell viability [%]
0.000781 µM	102
0.00234 µM	119
0.00702 µM	134
0.0211 µM	124
0.0632 µM	145
0.19 µM	129
0.569 µM	142
1.71 µM	128
5.12 µM	109
15.4 µM	89.6
46.1 µM	43.1

AUC of viability dose-response curve
Details	NOMO1 [6]	P12-Ichikawa [5]	SEM cells [4]
HPLM + 10% dialyzed FBS	407	451	440
RPMI 5 mM glucose + 10% FBS	449	438	438
RPMI 5 mM glucose + 10% dialyzed FBS	462	450	436
